What was measured:
[1] = target: 11-beta-hydroxysteroid dehydrogenase 1 (Mus musculus) (UniProt P50172); assay: Inhibition of mouse microsomal 11beta-HSD1 overexpressed in HEK293 cells using [3H]-cortisone as substrate assessed as formation of [3H]-cortisol at 10 uM by scintillation proximity assay in presence of NADPH relative to control
[2] = target: 11-beta-hydroxysteroid dehydrogenase 1 (Mus musculus, UniProt P50172); assay: Inhibition of mouse microsomal 11beta-HSD1 overexpressed in HEK293 cells using [3H]-cortisone as substrate assessed as formation of [3H]-cortisol by scintillation proximity assay in presence of NADPH
[3] = target: T1, 11-beta-hydroxysteroid dehydrogenase 1 (Homo sapiens, UniProt P28845); assay: Inhibition of human microsomal 11beta-HSD1 overexpressed in HEK293 cells using [3H]-cortisone as substrate assessed as formation of [3H]-cortisol at 10 uM by scintillation proximity assay in presence of NADPH relative to control
Target sequence in this assay (P28845 whole entry, looked up): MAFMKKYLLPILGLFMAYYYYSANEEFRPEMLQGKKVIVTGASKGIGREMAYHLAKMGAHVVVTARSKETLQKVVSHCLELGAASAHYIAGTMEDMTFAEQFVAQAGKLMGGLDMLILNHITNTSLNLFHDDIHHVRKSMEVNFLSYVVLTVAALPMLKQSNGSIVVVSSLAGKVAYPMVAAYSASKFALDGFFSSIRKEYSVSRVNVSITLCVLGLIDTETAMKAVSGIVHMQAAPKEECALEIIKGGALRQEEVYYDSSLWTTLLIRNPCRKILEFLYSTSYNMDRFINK

[4] = target: T1, 11-beta-hydroxysteroid dehydrogenase 1; assay: Inhibition of human microsomal 11beta-HSD1 overexpressed in HEK293 cells using [3H]-cortisone as substrate assessed as formation of [3H]-cortisol by scintillation proximity assay in presence of NADPH
Target sequence in this assay (P28845 whole entry): as the sequence (P28845 whole entry, looked up) above

Sequence of 11-beta-hydroxysteroid dehydrogenase 1 (Mus musculus) (P50172 whole entry, looked up): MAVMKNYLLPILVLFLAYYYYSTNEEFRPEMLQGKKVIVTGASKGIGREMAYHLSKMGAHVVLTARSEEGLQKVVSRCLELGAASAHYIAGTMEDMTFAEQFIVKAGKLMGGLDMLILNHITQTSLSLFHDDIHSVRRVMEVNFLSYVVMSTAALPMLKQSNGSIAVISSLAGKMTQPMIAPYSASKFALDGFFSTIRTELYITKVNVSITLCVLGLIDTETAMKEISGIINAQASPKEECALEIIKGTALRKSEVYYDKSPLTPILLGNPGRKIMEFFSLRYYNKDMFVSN
Sequence of 11-beta-hydroxysteroid dehydrogenase 1 (Mus musculus, UniProt P50172) (P50172 whole entry): as the sequence (P50172 whole entry, looked up) above

| inhibition [1] | IC50 [2] | inhibition [3] | IC50 [4] | SMILES |
| --- | --- | --- | --- | --- |
| > 60% | 1.15 µM | > 60% | 3.74 µM | CC(C)=CC(=O)[C@@H](O)[C@H](C)[C@@H]1CC[C@]2(C)C3=CC[C@H]4C(C)(C)[C@@H](O)CC[C@]4(C)[C@H]3C[C@@H](O)[C@@]12C |
| 45% |  | 45% |  | CC(C)=CC(=O)[C@@H](O)[C@H](C)[C@@H]1CC[C@]2(C)C3=CC[C@H]4C(C)(C)[C@H](O)CC[C@]4(C)[C@H]3C[C@@H](O)[C@@]12C |
| > 60% | 0.82 µM | > 60% | 3.2 µM | CC(C)(O)[C@@H](O)[C@H]1C[C@@H]([C@@H]2CC[C@]3(C)C4=CC[C@H]5C(C)(C)[C@@H](O)CC[C@]5(C)[C@H]4CC[C@@]23C)C(=O)O1 |
|  |  | > 50% | 11.4 µM | CCC(C)C(=O)O[C@@H]1C[C@H]2C(C)(C)C(=O)C=C[C@]2(C)[C@H]2[C@@H](OC(C)=O)C[C@]3(C)C(=CC(=O)[C@H]3c3ccoc3)[C@@]21C (relative stereo) |
